From article PMC4063695, “Design of Embedded-Hybrid Antimicrobial Peptides with Enhanced Cell Selectivity and Anti-Biofilm Activity” (PLoS ONE, 2014)
No end group written: not given here.

Experiments:
[1] = system: E. coli ATCC25922; test: MIC in the presence of physiological salts; assay type: cell-based, Escherichia coli; design: unit not given here
From the text: (§1) E. coli ATCC25922, P. aeruginosa ATCC27853, S. aureus ATCC29213, S. epidermidis ATCC12228, S. faecalis ATCC29212 and B. subtilis CMCC63501 were obtained from the College of Veterinary Medicine, Northeast Agricultural University (Harbin, China), E. coli K88, E. coli CVCC1515 and P. aeruginosa ATCC15442 were bestowed by Prof. J.H. Wang (Gene Engineering Laboratory, Feed Research Institute, Chinese Academy of Agricultural Sciences Beijing, China) and E. coli UB1005 was kindly provided by Prof. Q.S. Qi (State Key Laboratory of Microbial Technology, Shandong University, China). […] Briefly, 50 µl of approximate 0.5–1 × 10^6 colony forming units (CFU)/ml of cells were diluted in Mueller-Hinton broth and distributed to 96-well plate, 50 µl of twofold peptides were added and the plates was incubated at 37°C for 18–24 h. The MIC values were calculated as the lowest peptide concentration that prevented visible turbidity and negative control of the pure broth without microbes. The tests were performed at least three times in duplicate.
(§2) The stability of peptides was tested in the MIC assay in different environments, including salt sensitivity, human serum, thermal stability and susceptibility to enzymes. For salt sensitivity, 0.5–1 × 10^6 CFU/ml of P. aeruginosa ATCC27853 and E. coli ATCC25922 were treated with peptides, while different salts were added to MHB, and the final concentrations of physiological salts were as follows: 150 mM NaCl, 4.5 mM KCl, 1 mM MgCl2, 6 µM NH4Cl, 8 µM ZnCl2, 4 µM FeCl3 and […] [33]. Except salt sensitivity, only E. coli ATCC25922 was treated with peptides. […] For testing peptide sensitivity to the proteolytic enzymes, the peptides were incubated in advance at 37°C for 1 h with a 1 mg/ml final concentration of the proteolytic enzymes (trypsin, pepsin, papain and proteinase K). For testing thermal stability, incubation occurred at 100°C for 1 h. After these treatments, the procedures were same as MIC assay described above.

[2] = system: E. coli ATCC25922; test: MIC after treatment with serum, enzymes and heat; assay type: cell-based, Escherichia coli
From the text: as §1, §2

[3] = system: Gram-negative and Gram-positive strains; test: MIC over all tested strains (range, geometric mean); assay type: cell-based; design: GM (geometric mean of MIC values from all microbial strains): unit not given here; conditions: all strains of Table 2
From the text: as §1

[4] = system: E. coli UB1005; test: Cytoplasmic membrane electrical potential, diSC3-5; assay type: cell-based, Escherichia coli; conditions: diSC3-5 release over 600 s
Procedure: Peptides could alter the electrical potential of cytoplasmic membrane, and this potential that was measured by using E. coli UB1005 cells and diSC3-5 (Sigma), a membrane potential-sensitive fluorescent dye, as previously described, [35]. E. coli UB1005 was cultured to logarithmic phase in MHB, harvested by centrifugation, washed twice with buffer (5 mM of HEPES and 20 mM of glucose, pH 7.4) and resuspended to an OD600 of 0.05 in the identical buffer. The dye (diSC3-5) was added to above buffer at a final concentration of 0.4 µM. And the bacteria were incubated to take up the dye for 90 min. KCl was added to a final concentration of 0.1 M for equilibrating K^+ concentration between extracellular and intracellular environment, and then the bacteria were incubated at room temperature for 10 min. The cell suspension (2 ml) was placed in a 1-cm cuvette, and the peptides were added to different concentrations. The fluorescence intensity changes were monitored by using an F-4500 fluorescence spectrophotometer (Hitachi, Japan) with an excitation wavelength of 622 nm and an emission wavelength of 670 nm.

[5] = Circular dichroism, secondary structure; assay type: physicochemical; conditions: 150 µM peptide, 25°C, from [θ]222
Procedure: The CD spectra were measured with a CD spectropolarimeter (Jasco, J-820, Tokyo, Japan) at 25°C, using a 0.1 cm path length rectangular quartz cell. The spectra were recorded at between 190 and 250 nm at 10 nm/min scanning speed. At least three scans were conducted for each peptide sample.
The acquired CD spectra were converted to the mean residue ellipticity through the following equation: [drawing 1]
where θM is the mean residue ellipticity [deg.cm2.dmol-1], θobs is the observed ellipticity corrected for the buffer at a given wavelength [mdeg], c is the peptide concentration [mM], l is the path length [mm], and n is the number of amino acids.
The percentage of α-helical structure was calculated as followings: [drawing 2]
where [θ]222 is the experimentally observed mean residue ellipticity at 222 nm, and values for [θ]^0 and [θ]^100 which correspond to 0 and 100% a-helix content at 222 nm, are estimated to be −2000 and −32000, respectively, [29].

[6] = system: E. coli ATCC25922; test: Kinetics of bacterial killing; assay type: cell-based, Escherichia coli; conditions: 1× MIC, within 30 min, 37°C, PBS; mean of three repeats
Procedure: Kinetics of the bacterial killing was measured by using E. coli ATCC25922 in logarithmic phase (10^8 CFU/mL). The above bacteria were diluted to 1/1000 with PBS, and 500 µL solutions was added with 500 µL PBS at different final concentrations (1/4, 1/2 and 1 × MIC). The solutions were incubated for 0.5 min, 1 min, 2.5 min, 5 min, 10 min, 20 min, and 40 min at 37°C. The moderately diluted samples were plated on nutrient agar plate (MHA). The bacterial colonies were counted after incubation for 18 h at 37°C. The results were determined and presented as the mean of three repeats.

[7] = system: P. aeruginosa ATCC27853; test: MIC in the presence of physiological salts; assay type: cell-based, Pseudomonas aeruginosa; design: unit not given here
From the text: as §1, §2

[8] = system: S. pullorum C79-13; conditions: S. pullorum C79-13; MHB, 37°C, 18-24 h; at least three times in duplicate
From the text: as §1

[9] = all kinds of salts in physiological concentrations

For RFRRLFRIRVRVLKKI-NH2 [R-FV-I16], the “MIC, FeCl3” value ([1]; 4 µM FeCl3 in MHB) was 1, the “MIC, NH4Cl” value ([1]; 6 µM NH4Cl in MHB) was 1 and the “MIC, ZnCl2” value ([1]; 8 µM ZnCl2 in MHB) was 1. For the same substance, the “MIC, MgCl2” value ([1]; 1 mM MgCl2 in MHB) was 4, the “MIC, KCl” value ([1]; 4.5 mM KCl in MHB) was 1 and the “MIC, NaCl” value ([1]; 150 mM NaCl in MHB) was 4. For the same substance, the “MIC, Mix” value [1, 9] was 8, the “MIC, CaCl2” value ([1]; in MHB) was 1 and the “MIC, Control” value ([1]; no added salts, unit not given) was 1. For the same substance, the “MIC, Serum 25%” value ([2]; E. coli ATCC25922, 25% human serum in MHB) was 4, the “MIC, Serum 50%” value ([2]; E. coli ATCC25922, 50% human serum in MHB) was 16 and the “MIC, Heat 100°C” value ([2]; E. coli ATCC25922, peptide incubated at 100°C for 1 h) was 1. For the same substance, the “MIC, Enzymes Caroid” value ([2]; E. coli ATCC25922, peptide pre-incubated 1 h at 37°C with 1 mg/ml enzyme (method names papain)) was 8, the “MIC, Enzymes Pepsin” value ([2]; E. coli ATCC25922, peptide pre-incubated 1 h at 37°C with 1 mg/ml pepsin) was 8 and the “MIC, Enzymes Proteinase K” value ([2]; E. coli ATCC25922, peptide pre-incubated 1 h at 37°C with 1 mg/ml proteinase K) was greater than 128. The “MIC, Enzymes Trypsin” value ([2]; E. coli ATCC25922, peptide pre-incubated 1 h at 37°C with 1 mg/ml trypsin) was 4, the “antimicrobial activity after heat (in words)” value ([2]; E. coli, incubation at 100°C for approximately 1 h) was “remained stable” and the “GM (geometric mean of MIC values from all microbial strains)” value [3] was 2. For the same substance, the “cytoplasmic membrane depolarization (in words)” value [4] was “able to permeabilize the bacterial cell membrane even at a lower concentration than their MICs”, the α-helical content ([5]; 30 mM SDS) was 36% and the α-helical content ([5]; 50% TFE) was 69%. For the same substance, the “reduction of colony count” value [6] was 99%, the “MIC, CaCl2” value ([7]; 2.5 µM CaCl2 in MHB) was 4 and the “MIC, FeCl3” value ([7]; 4 µM FeCl3 in MHB) was 4. The “MIC, NH4Cl” value ([7]; 6 µM NH4Cl in MHB) was 4, the “MIC, ZnCl2” value ([7]; 8 µM ZnCl2 in MHB) was 4 and the “MIC, MgCl2” value ([7]; 1 mM MgCl2 in MHB) was 8. The “MIC, KCl” value ([7]; 4.5 mM KCl in MHB) was 4, the “MIC, NaCl” value ([7]; 150 mM NaCl in MHB) was 4 and the “MIC, Mix” value [7, 9] was 16. The “MIC, Control” value ([7]; no added salts, unit not given) was 4 and the MIC [8] was 1 µM.
